For test [1], the system named is hemodepression induced by 5-fluorouracil. Description: Hemostimulating effect in 5-fluorouracil-induced hemodepression. It is filed as in vivo, CBA-mice. The method, then: The test was designed to study hemodepression induced by 5-fluorouracil injected i.p. in a dose 175 mg per kg (172 male CBA-mice). Treatment: peptide HM897 was administered i.p. starting from 4th day after 5-FU injection in doses 0.00001, 0.001, 0.01, 1.0 mg/kg for 5 days. Treatment of controls: normal saline i.p. for 5 days. Tested parameters: peripheral blood count and bone marrow differential count.

In test [2] the test system is guinea-pig myelokaryocytes. Description: Colony-forming activity of macrophage precursors. The test is classed as cell-based. As to conditions: tested 1.0 to 0.0000001 microg/ml. The method, then:
This test is designed to study macrophage precursors. Cultured cells used were guinea-pig myelokaryocytes. HM897 was added to cell culture in concentrations 1.0, 0.001, 0.00001 and 0.0000001 microg/ml.

The subject of a further test is posthemorrhagic anemia. The experiment in a line: Erythropoietic effect in posthemorrhagic anemia. It is filed as in vivo, mice. On the procedure:
This test was designed to study posthemorrhagic anemia (acute blood loss caused by taking blood from retroorbital sinus), and hemolytic anemia induced by phenylhydrazine hydrochloride (120 mg active ingredients/kg 30 Balb/c-mice and 30 CBA-mice). HM897 was injected intraperitoneally in doses of 100 and 150 microg per kg, 3 hours and 1 day after intervention modelling anemia, for 5 days. Tester parameters: RBC, leukocytes, reticulocytes, Hb, Hct

Test [3] has as its system blood lymphoid cells and immune organs after irradiation. The experiment in a line: Effect on immune system of irradiated guinea pigs. It is filed as in vivo. The method, then: Twenty-two male guinea pigs were used in the following test.
Guinea pigs were exposed to irradiation in a total. does 1Gy.target-skin distance—70 cm; time of exposure—2′48″ Device: 180 kV; 15 mA; filter 0.5 Cu Treatment: i.m. single daily 1 microg. HM897 per kg for 5 days.
Treatment of controls: normal saline 0.5 ml i.m. single daily for 5 days.
Leukocyte and lymphocyte levels were measured in peripheral blood on the 7th, 14th, 21st, 36th and 44th day after irradiation.
In a second test 40 male guinea pigs were used, and the same regimen was followed.
There were two controls—irradiated and non-irradiated. Parameters were evaluated on the 8th and 21st days after irradiation. Tested parameters: clinical blood examination, non-specific resistance by lysosomal cationic test; “active” T-lymphocytes and total T-lymphocytes (E-RFC), B-lymphocytes (EAC-RFC) were measured in blood, thymus, lymph nodes, spleen and red bone marrow. Blood lymphocyte functional activity was evaluated by leukocyte migration inhibition (LMI) with ConA. Histological examinations of thymus, spleen, lymph nodes, bone marrow and adrenals were carried out.

Thr-Ala-Glu-Glu-Lys (TAEEK) [HM897]: the restoration of hemopoiesis result in test [1] (5-FU hemodepression, CBA-mice) was “promotes active restoration of hemopoiesis”. In addition, the “dose from which the peptide was active” value in test [1] (i.p. for 5 days from 4th day after 5-FU 175 mg per kg) is on record as at least 0.001 mg/kg. Further, the “concentration from which macrophage precursors colony-forming activity is stimulated” value in test [2] is at least 0.0000001 µg/mL. The “Hb level and plasma/formed elements ratio restoration” value with posthemorrhagic anemia is listed as “more rapid”. This substance displayed a most effective dose in the test with posthemorrhagic anemia (doses 100 and 150 i.p.) of 0.15 mg/kg. Further, the RBC count with posthemorrhagic anemia (on the 6th day after administration) stood at 7.1 mln/ml. Also, in test [3] (irradiation 1 Gy, 1 microg per kg i.m. daily for 5 days, days 7-44), the “leukocyte and lymphocyte levels in peripheral blood” value is “restoration of leukocyte and lymphocyte levels”. For the same substance, the “peripheral blood lymphocytes and neutrophil functional activity” value in test [3] (second test, irradiated animals) was “restored peripheral blood lymphocytes and neutrophil functional activity”. Besides, the “T-lymphocyte maturation and migration” value in test [3] (second test, irradiated animals, early terms of observation) was “accelerates T-lymphocyte maturation and their migration to peripheral immune organs”. Moreover, the “proliferation and differentiation in organs of the immune system” value in test [3] (second test, irradiated animals, later stage of the study) was “enhancement of proliferation and differentiation in both central and peripheral organs of the immune system”.

(Values after patent publication US6346514B1, “Pharmaceutical lysine-containing polypeptide compositions and methods of use thereof” (priority 1991, dated 2002).)
